Laboratory results as given in PubChem BioAssay AID2060912 (Molecular Pharmacology Branch, DTP, NCI, 2025).

Test system: HUVEC/MSC spheroids viability
Assay: Human HUVEC/MSC cell line growth inhibition [KRAS2];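 on viability, T/C: percent of DMSO vehicle control luminescence so 100% = untreated viability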
Details: for viability, T/C: stronger effect = lower value
How it was run: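 The concentration series started at or near clinical Cmax (10 microM if not known) and fell in half-log increments, alone or in combination. Cells were stromal-only spheroids of pooled-donor HUVEC and hMSC (passage </=5), with different drug plates and layout from the tumor spheroid screens.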

[1] = curve of first compound, second compound 0.0316 µM
[2] = curve of first compound, second compound 0.1 µM
[3] = curve of first compound, second compound 0.316 µM
[4] = curve of first compound, second compound 1 µM
[5] = curve of first compound, second compound 3.16 µM
[6] = curve of first compound, second compound 10 µM
[7] = second compound 0.0316 µM, first compound 0.0316 µM
[8] = second compound 0.0316 µM, first compound 0.1 µM
[9] = second compound 0.0316 µM, first compound 0.316 µM
[10] = second compound 0.0316 µM, first compound 1 µM
[11] = second compound 0.0316 µM, first compound 3.16 µM
[12] = second compound 0.0316 µM, first compound 10 µM
[13] = second compound 0.1 µM, first compound 0.0316 µM
[14] = second compound 0.1 µM, first compound 0.1 µM
[15] = second compound 0.1 µM, first compound 0.316 µM
[16] = second compound 0.1 µM, first compound 1 µM
[17] = second compound 0.1 µM, first compound 3.16 µM
[18] = second compound 0.1 µM, first compound 10 µM
[19] = second compound 0.316 µM, first compound 0.0316 µM
[20] = second compound 0.316 µM, first compound 0.1 µM
[21] = second compound 0.316 µM, first compound 0.316 µM
[22] = second compound 0.316 µM, first compound 1 µM
[23] = second compound 0.316 µM, first compound 3.16 µM
[24] = second compound 0.316 µM, first compound 10 µM
[25] = second compound 1 µM, first compound 0.0316 µM
[26] = second compound 1 µM, first compound 0.1 µM
[27] = second compound 1 µM, first compound 0.316 µM
[28] = second compound 1 µM, first compound 1 µM
[29] = second compound 1 µM, first compound 3.16 µM
[30] = second compound 1 µM, first compound 10 µM
[31] = second compound 3.16 µM, first compound 0.0316 µM
[32] = second compound 3.16 µM, first compound 0.1 µM
[33] = second compound 3.16 µM, first compound 0.316 µM
[34] = second compound 3.16 µM, first compound 1 µM
[35] = second compound 3.16 µM, first compound 3.16 µM
[36] = second compound 3.16 µM, first compound 10 µM
[37] = second compound 10 µM, first compound 0.0316 µM
[38] = second compound 10 µM, first compound 0.1 µM
[39] = second compound 10 µM, first compound 0.316 µM
[40] = second compound 10 µM, first compound 1 µM
[41] = second compound 10 µM, first compound 3.16 µM
[42] = second compound 10 µM, first compound 10 µM

CCNC(=O)CC1N=C(c2ccc(Cl)cc2)c2cc(OC)ccc2-n2c(C)nnc21 (stereo not drawn) + COc1cc2nc(C)nc(NC(C)c3cc(N)cc(C(F)(F)F)c3)c2cc1OC1CCOC1
IC50 [1]: > 10 µM
IC50 [2]: > 10 µM
IC50 [3]: > 10 µM
IC50 [4]: > 10 µM
IC50 [5]: > 10 µM
IC50 [6]: > 10 µM
viability, T/C [7]: 89.6%
viability, T/C [8]: 94%
viability, T/C [9]: 94.3%
viability, T/C [10]: 113%
viability, T/C [11]: 114%
viability, T/C [12]: 120%
viability, T/C [13]: 78.7%
viability, T/C [14]: 86.2%
viability, T/C [15]: 89.3%
viability, T/C [16]: 85.6%
viability, T/C [17]: 124%
viability, T/C [18]: 84.3%
viability, T/C [19]: 86.4%
viability, T/C [20]: 90.2%
viability, T/C [21]: 105%
viability, T/C [22]: 99.6%
viability, T/C [23]: 89.5%
viability, T/C [24]: 88.5%
viability, T/C [25]: 89.8%
viability, T/C [26]: 79.9%
viability, T/C [27]: 73%
viability, T/C [28]: 105%
viability, T/C [29]: 100%
viability, T/C [30]: 90%
viability, T/C [31]: 73.5%
viability, T/C [32]: 81.1%
viability, T/C [33]: 75.9%
viability, T/C [34]: 82.3%
viability, T/C [35]: 84.6%
viability, T/C [36]: 109%
viability, T/C [37]: 60.6%
viability, T/C [38]: 55.9%
viability, T/C [39]: 69.5%
viability, T/C [40]: 70%
viability, T/C [41]: 82.1%
viability, T/C [42]: 74.8%

CCN1CCN(Cc2ccc(Nc3ncc(F)c(-c4cc(F)c5nc(C)n(C(C)C)c5c4)n3)nc2)CC1
viability, T/C (compound 0.01 µM): 86.6% [middle of 5 runs]
viability, T/C (compound 0.0316 µM): 87.7% [middle of 5 runs]
viability, T/C (compound 0.1 µM): 83.9% [middle of 5 runs]
viability, T/C (compound 0.316 µM): 99.4% [middle of 5 runs]
IC50 (curve of compound): > 1 µM

COC(=O)c1ccc2c(C(=Nc3ccc(N(C)C(=O)CN4CCN(C)CC4)cc3)c3ccccc3)c(O)[nH]c2c1
viability, T/C (compound 1 µM): 58.1% [middle of 5 runs]
viability, T/C (compound 3.16 µM): 39.6% [middle of 5 runs]
viability, T/C (compound 10 µM): 0.37% [middle of 5 runs]
IC50 (curve of compound): 1.96 µM [middle of 5 runs]

CCN1CCN(Cc2ccc(Nc3ncc(F)c(-c4cc(F)c5nc(C)n(C(C)C)c5c4)n3)nc2)CC1 + C=CC(=O)N1CCN(c2nc(OCC3CCCN3C)nc3c2CCN(c2cccc4cccc(C)c24)C3)CC1CC#N
IC50 (curve of first compound, second compound 0.00949 µM): > 1 µM
IC50 (curve of first compound, second compound 0.03 µM): > 1 µM
IC50 (curve of first compound, second compound 0.0949 µM): > 1 µM
IC50 (curve of first compound, second compound 0.3 µM): > 1 µM
IC50 (curve of first compound, second compound 0.949 µM): > 1 µM
IC50 (curve of first compound, second compound 3 µM): > 1 µM
viability, T/C (second compound 0.00949 µM, first compound 0.00316 µM): 98.1%
viability, T/C (second compound 0.00949 µM, first compound 0.01 µM): 94.3%
viability, T/C (second compound 0.00949 µM, first compound 0.0316 µM): 82.5%
viability, T/C (second compound 0.00949 µM, first compound 0.1 µM): 83.7%
viability, T/C (second compound 0.00949 µM, first compound 0.316 µM): 98.7%
viability, T/C (second compound 0.00949 µM, first compound 1 µM): 149%
viability, T/C (second compound 0.03 µM, first compound 0.00316 µM): 80.7%
viability, T/C (second compound 0.03 µM, first compound 0.01 µM): 75.4%
viability, T/C (second compound 0.03 µM, first compound 0.0316 µM): 97.9%
viability, T/C (second compound 0.03 µM, first compound 0.1 µM): 84.2%
viability, T/C (second compound 0.03 µM, first compound 0.316 µM): 111%
viability, T/C (second compound 0.03 µM, first compound 1 µM): 142%
viability, T/C (second compound 0.0949 µM, first compound 0.00316 µM): 94.6%
viability, T/C (second compound 0.0949 µM, first compound 0.01 µM): 82%
viability, T/C (second compound 0.0949 µM, first compound 0.0316 µM): 84.1%
viability, T/C (second compound 0.0949 µM, first compound 0.1 µM): 98.7%
viability, T/C (second compound 0.0949 µM, first compound 0.316 µM): 113%
viability, T/C (second compound 0.0949 µM, first compound 1 µM): 146%
viability, T/C (second compound 0.3 µM, first compound 0.00316 µM): 74.5%
viability, T/C (second compound 0.3 µM, first compound 0.01 µM): 89%
viability, T/C (second compound 0.3 µM, first compound 0.0316 µM): 86.8%
viability, T/C (second compound 0.3 µM, first compound 0.1 µM): 81.3%
viability, T/C (second compound 0.3 µM, first compound 0.316 µM): 115%
viability, T/C (second compound 0.3 µM, first compound 1 µM): 126%
viability, T/C (second compound 0.949 µM, first compound 0.00316 µM): 85.4%
viability, T/C (second compound 0.949 µM, first compound 0.01 µM): 64.5%
viability, T/C (second compound 0.949 µM, first compound 0.0316 µM): 77.2%
viability, T/C (second compound 0.949 µM, first compound 0.1 µM): 79.2%
viability, T/C (second compound 0.949 µM, first compound 0.316 µM): 112%
viability, T/C (second compound 0.949 µM, first compound 1 µM): 161%
viability, T/C (second compound 3 µM, first compound 0.00316 µM): 97.8%
viability, T/C (second compound 3 µM, first compound 0.01 µM): 85.2%
viability, T/C (second compound 3 µM, first compound 0.0316 µM): 97.9%
viability, T/C (second compound 3 µM, first compound 0.1 µM): 109%
viability, T/C (second compound 3 µM, first compound 0.316 µM): 158%
viability, T/C (second compound 3 µM, first compound 1 µM): 106%

C=CC(=O)N1CCN(c2nc(=O)n(-c3c(C)ccnc3C(C)C)c3nc(-c4c(O)cccc4F)c(F)cc23)C(C)C1 (stereo not drawn)
viability, T/C (compound 0.0316 µM): 99.5% [middle of 9 runs]
viability, T/C (compound 10 µM): 117% [middle of 9 runs]
IC50 (compound alone, run of 05/05/2024): > 10 µM

CC1OCC2(CCN(c3cnc(Sc4ccnc(N)c4Cl)c(N)n3)CC2)C1N (stereo not drawn) + C=CC(=O)N1CCN(c2nc(=O)n(-c3c(C)ccnc3C(C)C)c3nc(-c4c(O)cccc4F)c(F)cc23)C(C)C1
IC50 [1]: > 10 µM
IC50 [2]: > 10 µM
IC50 [3]: > 10 µM
IC50 [4]: > 10 µM
IC50 [5]: > 10 µM
IC50 [6]: > 10 µM
viability, T/C [7]: 118%
viability, T/C [8]: 101%
viability, T/C [9]: 105%
viability, T/C [10]: 80.5%
viability, T/C [11]: 70.1%
viability, T/C [12]: 70.5%
viability, T/C [13]: 110%
viability, T/C [14]: 107%
viability, T/C [15]: 97.2%
viability, T/C [16]: 84.3%
viability, T/C [17]: 72%
viability, T/C [18]: 67.9%
viability, T/C [19]: 96.8%
viability, T/C [20]: 129%
viability, T/C [21]: 92.1%
viability, T/C [22]: 88%
viability, T/C [23]: 81.8%
viability, T/C [24]: 78.5%
viability, T/C [25]: 101%
viability, T/C [26]: 126%
viability, T/C [27]: 105%
viability, T/C [28]: 99.7%
viability, T/C [29]: 89%
viability, T/C [30]: 77.5%
viability, T/C [31]: 116%
viability, T/C [32]: 136%
viability, T/C [33]: 111%
viability, T/C [34]: 92.7%
viability, T/C [35]: 109%
viability, T/C [36]: 71.3%
viability, T/C [37]: 104%
viability, T/C [38]: 121%
viability, T/C [39]: 120%
viability, T/C [40]: 98.3%
viability, T/C [41]: 95.5%
viability, T/C [42]: 54.7%
